Source: the supplement of paper PMC10307832

What was measured:
Assay in all cases: relative viability (nuclei count vs DMSO), 5 days (fraction); higher = more cells survive
SK-LU-1 = tested on: SK-LU-1
Summary of the method: (§1)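 Lung cancer cell lines, seeded in 1536-well plates, were treated the following day by pin tool with a single drug or with five library-drug doses (not always all listed) in √10 steps on top of a fixed anchor-drug dose. Cells were fixed and nuclei stained in one step after 5 days, and nuclei were counted. Relative viability is the nuclei count for treated wells divided by that for vehicle wells, reported as medians of duplicate plates.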

PC-3 [JPC-3] = tested on: PC-3 [JPC-3]
Summary of the method: as §1

NCI-H1793 = tested on: NCI-H1793
Summary of the method: as §1

SW 1573 = tested on: SW 1573
Summary of the method: as §1

A-427 = tested on: A-427
Summary of the method: as §1

LU99A = tested on: LU99A
Summary of the method: as §1

NCI-H1792 = tested on: NCI-H1792
Summary of the method: as §1

LXF-289 = tested on: LXF-289
Summary of the method: as §1

COR-L23 = tested on: COR-L23
Summary of the method: as §1

NCI-H2170 = tested on: NCI-H2170
Summary of the method: as §1

NCI-H1944 = tested on: NCI-H1944
Summary of the method: as §1

EMC-BAC-2 = tested on: EMC-BAC-2
Summary of the method: as §1

SW 900 = tested on: SW 900
Summary of the method: as §1

NCI-H2009 = tested on: NCI-H2009
Summary of the method: as §1

NCI-H596 = tested on: NCI-H596
Summary of the method: as §1

NCI-H2228 = tested on: NCI-H2228
Summary of the method: as §1

LK-2 = tested on: LK-2
Summary of the method: as §1

NCI-H3122 = tested on: NCI-H3122
Summary of the method: as §1

HOP-62 = tested on: HOP-62
Summary of the method: as §1

SK-MES-1 = tested on: SK-MES-1
Summary of the method: as §1

HARA = tested on: HARA
Summary of the method: as §1

NCI-H1993 = tested on: NCI-H1993
Summary of the method: as §1

## CC(C)Oc1cc(Nc2nc(N[C@@H](C)c3ccc(F)cn3)ncc2Cl)n[nH]1 [AZ23] + Nc1nc2[nH]cc(CCc3ccc(C(=O)N[C@@H](CCC(=O)O)C(=O)O)cc3)c2c(=O)[nH]1 [Pemetrexed] (partner 0.2 µM)
SK-LU-1; first compound 0.03162 µM
  relative viability: 1.13
SK-LU-1; first compound 0.3162 µM
  relative viability: 1.06
PC-3 [JPC-3]; first compound 0.01 µM
  relative viability: 0.955
PC-3 [JPC-3]; first compound 0.03162 µM
  relative viability: 1.25
PC-3 [JPC-3]; first compound 0.3162 µM
  relative viability: 1.22
NCI-H1793; first compound 0.01 µM
  relative viability: 0.986
NCI-H1793; first compound 0.03162 µM
  relative viability: 0.92
NCI-H1793; first compound 0.3162 µM
  relative viability: 0.979
SW 1573; first compound 0.01 µM
  relative viability: 0.958
SW 1573; first compound 0.03162 µM
  relative viability: 0.792
SW 1573; first compound 0.3162 µM
  relative viability: 0.849
A-427; first compound 0.01 µM
  relative viability: 0.797
A-427; first compound 0.03162 µM
  relative viability: 1.01
A-427; first compound 0.3162 µM
  relative viability: 1.15
LU99A; first compound 0.01 µM
  relative viability: 0.146
LU99A; first compound 0.03162 µM
  relative viability: 0.199
LU99A; first compound 0.3162 µM
  relative viability: 0.209
NCI-H1792; first compound 0.01 µM
  relative viability: 0.813
NCI-H1792; first compound 0.03162 µM
  relative viability: 0.912
NCI-H1792; first compound 0.3162 µM
  relative viability: 1
LXF-289; first compound 0.01 µM
  relative viability: 1.02
LXF-289; first compound 0.03162 µM
  relative viability: 0.974
LXF-289; first compound 0.3162 µM
  relative viability: 0.99
COR-L23; first compound 0.01 µM
  relative viability: 0.172
COR-L23; first compound 0.03162 µM
  relative viability: 0.193
COR-L23; first compound 0.3162 µM
  relative viability: 0.189
NCI-H2170; first compound 0.01 µM
  relative viability: 0.261
NCI-H2170; first compound 0.03162 µM
  relative viability: 0.265
NCI-H2170; first compound 0.3162 µM
  relative viability: 0.256
NCI-H1944; first compound 0.01 µM
  relative viability: 0.314
NCI-H1944; first compound 0.03162 µM
  relative viability: 0.824
NCI-H1944; first compound 0.3162 µM
  relative viability: 0.665
EMC-BAC-2; first compound 0.01 µM
  relative viability: 0.493
EMC-BAC-2; first compound 0.03162 µM
  relative viability: 0.46
EMC-BAC-2; first compound 0.3162 µM
  relative viability: 0.442
SW 900; first compound 0.01 µM
  relative viability: 0.491
SW 900; first compound 0.3162 µM
  relative viability: 0.514
NCI-H2009; first compound 0.01 µM
  relative viability: 1.16
NCI-H2009; first compound 0.03162 µM
  relative viability: 1.1
NCI-H2009; first compound 0.3162 µM
  relative viability: 1.02
NCI-H596; first compound 0.01 µM
  relative viability: 0.422
NCI-H596; first compound 0.03162 µM
  relative viability: 0.55
NCI-H596; first compound 0.3162 µM
  relative viability: 0.509
NCI-H2228; first compound 0.01 µM
  relative viability: 0.301
NCI-H2228; first compound 0.03162 µM
  relative viability: 0.407
NCI-H2228; first compound 0.3162 µM
  relative viability: 0.354
LK-2; first compound 0.03162 µM
  relative viability: 0.36
LK-2; first compound 0.3162 µM
  relative viability: 0.263
NCI-H3122; first compound 0.01 µM
  relative viability: 0.151
NCI-H3122; first compound 0.03162 µM
  relative viability: 0.199
NCI-H3122; first compound 0.3162 µM
  relative viability: 0.195
HOP-62; first compound 0.01 µM
  relative viability: 0.287
HOP-62; first compound 0.03162 µM
  relative viability: 0.359
HOP-62; first compound 0.3162 µM
  relative viability: 0.359
SK-MES-1; first compound 0.03162 µM
  relative viability: 1.03
SK-MES-1; first compound 0.3162 µM
  relative viability: 1.03
HARA; first compound 0.01 µM
  relative viability: 0.147
HARA; first compound 0.03162 µM
  relative viability: 0.309
HARA; first compound 0.3162 µM
  relative viability: 0.281
NCI-H1993; first compound 0.01 µM
  relative viability: 0.589
NCI-H1993; first compound 0.03162 µM
  relative viability: 0.564
NCI-H1993; first compound 0.3162 µM
  relative viability: 0.563
